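Values below derive from 48-hour exposures of cells grown in 96-well plates, with endpoints linearly interpolated between the two concentrations bracketing the appropriate inhibition level. At the TGI there is no net growth.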
How the values were obtained:
Test in all cases: DTP human tumour cell line panel, 48 h
HCT-116 colon = system: HCT-116 colon
UO-31 renal = system: UO-31 renal
NCI/ADR-RES ovarian = system: NCI/ADR-RES ovarian
EKVX NSCLC = system: EKVX NSCLC
HS 578T breast = system: HS 578T breast
TK-10 renal = system: TK-10 renal
HOP-62 NSCLC = system: HOP-62 NSCLC
IGROV1 ovarian = system: IGROV1 ovarian
SN12C renal = system: SN12C renal
KM12 colon = system: KM12 colon
MALME-3M melanoma = system: MALME-3M melanoma
SNB-19 CNS = system: SNB-19 CNS
SF-539 CNS = system: SF-539 CNS
MDA-N = system: MDA-N
T-47D breast = system: T-47D breast
SK-MEL-28 melanoma = system: SK-MEL-28 melanoma
LOX IMVI melanoma = system: LOX IMVI melanoma
K-562 leukemia = system: K-562 leukemia
HCT-15 colon = system: HCT-15 colon
MCF7 breast = system: MCF7 breast
OVCAR-5 ovarian = system: OVCAR-5 ovarian
A549 NSCLC = system: A549 NSCLC
OVCAR-3 ovarian = system: OVCAR-3 ovarian
786-0 renal = system: 786-0 renal
MOLT-4 leukemia = system: MOLT-4 leukemia
SK-MEL-2 melanoma = system: SK-MEL-2 melanoma
BT-549 breast = system: BT-549 breast
UACC-62 melanoma = system: UACC-62 melanoma
SF-268 CNS = system: SF-268 CNS
ACHN renal = system: ACHN renal
SK-MEL-5 melanoma = system: SK-MEL-5 melanoma
NCI-H226 lung = system: NCI-H226 lung
NCI-H23 lung = system: NCI-H23 lung
NCI-H460 lung = system: NCI-H460 lung
OVCAR-4 ovarian = system: OVCAR-4 ovarian
SNB-75 CNS = system: SNB-75 CNS
RXF 393 renal = system: RXF 393 renal
SK-OV-3 ovarian = system: SK-OV-3 ovarian
MDA-MB-231 breast = system: MDA-MB-231 breast
PC-3 prostate = system: PC-3 prostate
OVCAR-8 ovarian = system: OVCAR-8 ovarian
M14 melanoma = system: M14 melanoma
CAKI-1 renal = system: CAKI-1 renal
COLO 205 colon = system: COLO 205 colon
NCI-H522 lung = system: NCI-H522 lung
SF-295 CNS = system: SF-295 CNS
DU-145 prostate = system: DU-145 prostate
SW-620 colon = system: SW-620 colon
UACC-257 melanoma = system: UACC-257 melanoma
MDA-MB-435 = system: MDA-MB-435
HCC-2998 colon = system: HCC-2998 colon
U251 CNS = system: U251 CNS
RPMI-8226 leukemia = system: RPMI-8226 leukemia
HT29 colon = system: HT29 colon
HL-60(TB) leukemia = system: HL-60(TB) leukemia
CCRF-CEM leukemia = system: CCRF-CEM leukemia

`CC(=O)O[C@H]1CC[C@H]2[C@@H]3CCC4=C/C(=N/OCCN(C)C)CC[C@]4(C)[C@H]3CC[C@]12C` gave a TGI (HCT-116 colon) of 16 µM, a TGI (UO-31 renal) of 28.1 µM and a TGI (NCI/ADR-RES ovarian) of 27.8 µM. It also gave a TGI (EKVX NSCLC) of 29 µM, a TGI (HS 578T breast) of 34.1 µM and a TGI (TK-10 renal) of 27 µM. It also gave a TGI (HOP-62 NSCLC) of 27.5 µM, a TGI (IGROV1 ovarian) of 26.2 µM and a TGI (SN12C renal) of 33.7 µM. The TGI (KM12 colon) was 18.9 µM, the TGI (MALME-3M melanoma) was 28.6 µM and the TGI (SNB-19 CNS) was 22.4 µM. For the same compound, the TGI (SF-539 CNS) was 7.28 µM, the TGI (MDA-N) was 14.4 µM and the TGI (T-47D breast) was 19.5 µM. The TGI (SK-MEL-28 melanoma) was 27.8 µM, the TGI (LOX IMVI melanoma) was 11 µM and the TGI (K-562 leukemia) was greater than 21.2 µM. The TGI (HCT-15 colon) was 12.8 µM, the TGI (MCF7 breast) was 17.9 µM and the TGI (OVCAR-5 ovarian) was 31.9 µM. For the same compound, the TGI (A549 NSCLC) was 25.6 µM, the TGI (OVCAR-3 ovarian) was 26.7 µM and the TGI (786-0 renal) was 22.8 µM. The TGI (MOLT-4 leukemia) was 13 µM, the TGI (SK-MEL-2 melanoma) was 26.9 µM and the TGI (BT-549 breast) was 27.2 µM. For the same compound, the TGI (UACC-62 melanoma) was 15.4 µM, the TGI (SF-268 CNS) was 27.5 µM and the TGI (ACHN renal) was 26.2 µM. For the same compound, the TGI (SK-MEL-5 melanoma) was 9.62 µM, the TGI (NCI-H226 lung) was 15.7 µM and the TGI (NCI-H23 lung) was 25.6 µM. For the same compound, the TGI (NCI-H460 lung) was 20.4 µM, the TGI (OVCAR-4 ovarian) was 23.5 µM and the TGI (SNB-75 CNS) was 19.1 µM. It also gave a TGI (RXF 393 renal) of 27.8 µM, a TGI (SK-OV-3 ovarian) of 24.6 µM and a TGI (MDA-MB-231 breast) of 39.5 µM. The TGI (PC-3 prostate) was 27.3 µM, the TGI (OVCAR-8 ovarian) was 28.1 µM and the TGI (M14 melanoma) was 10.1 µM. The TGI (CAKI-1 renal) was 27.2 µM, the TGI (COLO 205 colon) was 8.18 µM and the TGI (NCI-H522 lung) was 22.7 µM. It also gave a TGI (SF-295 CNS) of 17.5 µM, a TGI (DU-145 prostate) of 31 µM and a TGI (SW-620 colon) of 23.9 µM. It also gave a TGI (UACC-257 melanoma) of 21.1 µM, a TGI (MDA-MB-435) of 6.42 µM and a TGI (HCC-2998 colon) of 19 µM. It also gave a TGI (U251 CNS) of 26.4 µM, a TGI (RPMI-8226 leukemia) of 6.27 µM and a TGI (HT29 colon) of 6.8 µM. For the same compound, the TGI (HL-60(TB) leukemia) was 3.68 µM and the TGI (CCRF-CEM leukemia) was 10.1 µM.
